These results are taken from ChEMBL document CHEMBL3867482, “Design and synthesis of water soluble β-aminosulfone analogues of SCH 900229 as γ-secretase inhibitors” (Bioorg Med Chem Lett, 2016).

Data set [1] is described as follows: Clearance in dog hepatocytes assessed per million cells by HPLC/atmospheric pressure chemical ionization/MS analysis. In kind it is ADME, cell-based, Canis lupus familiaris, Hepatocyte. Conditions: read-out: CLH.
The target in another data set is Cytochrome P450 2C9 (Homo sapiens, UniProt P11712). Kind of data set: Inhibition of CYP2C9 in human liver microsomes after 30 secs by LC/MS/MS analysis. In kind it is ADME. Background: Liver microsomes are a subcellular fraction often used to study metabolism.
A short description of data set [2]: AUC (0 to 6 hrs) in mouse at 10 mg/kg, po by LC/MS/MS analysis. Conditions: in vivo. Details: time < 6 hr, dose 10 mg/kg, route oral. In kind it is ADME, organism-based.
Data set [3] deals with T1, Cytochrome P450 3A4 (Homo sapiens, UniProt P08684). Kind of data set: Inhibition of CYP3A4 in human liver microsomes preincubated for 30 mins after 30 secs by LC/MS/MS analysis. In kind it is ADME.
A further data set has as its target Cytochrome P450 2D6 (Homo sapiens, UniProt P10635). Kind of data set: Inhibition of CYP2D6 in human liver microsomes after 30 secs by LC/MS/MS analysis. In kind it is ADME.
Data set [4] concerns Mus musculus. Kind of data set: Antialzheimer activity in B6C3F1 mouse assessed as amyloid beta 40 level in cortex at 10 mg/kg, po administered as single dose after 3 hrs relative to control. In kind it is functional.
For data set [5], the target named is T1, Cytochrome P450 3A4. Kind of data set: Inhibition of CYP3A4 in human liver microsomes after 30 secs by LC/MS/MS analysis. In kind it is ADME.
Data set [6] in a line: Inhibition of gamma-secretase in HEK293 cell membranes expressing human APP Swedish/London double mutant assessed as reduction in amyloid beta 40 formation after 1 hr by electrochemiluminescence based immunoassay.
The nature of data set [7]: Clearance in human hepatocytes assessed per million cells by HPLC/atmospheric pressure chemical ionization/MS analysis. In kind it is ADME, cell-based, Hepatocyte. The following applies: read-out: CLH.
Data set [8] relates to Mus musculus. The data set is described as follows: Antialzheimer activity in B6C3F1 mouse assessed as amyloid beta 40 level in plasma at 10 mg/kg, po administered as single dose after 3 hrs relative to control. In kind it is functional.
A short description of data set [9]: Clearance in rat hepatocytes assessed per million cells by HPLC/atmospheric pressure chemical ionization/MS analysis. The following applies: read-out: CLH. In kind it is ADME, cell-based, Hepatocyte.
Data set [10] in a line: Clearance in monkey hepatocytes assessed per million cells by HPLC/atmospheric pressure chemical ionization/MS analysis. In kind it is ADME, cell-based, Macaca mulatta, Hepatocyte. Conditions: rhesus monkey, read-out: CLH.
The nature of data set [11]: Ratio of drug level in brain to plasma in mouse at 6 hrs. Conditions: brain and plasma, read-out: BPR. In kind it is ADME, organism-based.
Data set [12] is described as follows: Kinetic solubility of compound. In kind it is physicochemical. Conditions: read-out: Kinetic_solubility.

Chain of Cytochrome P450 2C9 (P11712 whole entry): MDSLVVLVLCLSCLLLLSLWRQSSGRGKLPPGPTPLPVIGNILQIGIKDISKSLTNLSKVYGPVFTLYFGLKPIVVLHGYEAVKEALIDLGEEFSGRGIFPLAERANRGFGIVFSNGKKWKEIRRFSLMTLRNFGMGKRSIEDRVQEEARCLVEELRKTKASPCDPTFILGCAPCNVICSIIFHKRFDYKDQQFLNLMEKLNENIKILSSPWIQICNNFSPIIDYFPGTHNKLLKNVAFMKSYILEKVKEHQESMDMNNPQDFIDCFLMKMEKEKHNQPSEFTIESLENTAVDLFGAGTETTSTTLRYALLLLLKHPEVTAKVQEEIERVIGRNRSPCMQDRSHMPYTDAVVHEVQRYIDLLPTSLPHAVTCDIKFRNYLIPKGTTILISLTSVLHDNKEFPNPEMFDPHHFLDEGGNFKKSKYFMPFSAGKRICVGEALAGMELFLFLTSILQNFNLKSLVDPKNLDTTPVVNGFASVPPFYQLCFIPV
Chain of Cytochrome P450 2D6 (P10635 whole entry): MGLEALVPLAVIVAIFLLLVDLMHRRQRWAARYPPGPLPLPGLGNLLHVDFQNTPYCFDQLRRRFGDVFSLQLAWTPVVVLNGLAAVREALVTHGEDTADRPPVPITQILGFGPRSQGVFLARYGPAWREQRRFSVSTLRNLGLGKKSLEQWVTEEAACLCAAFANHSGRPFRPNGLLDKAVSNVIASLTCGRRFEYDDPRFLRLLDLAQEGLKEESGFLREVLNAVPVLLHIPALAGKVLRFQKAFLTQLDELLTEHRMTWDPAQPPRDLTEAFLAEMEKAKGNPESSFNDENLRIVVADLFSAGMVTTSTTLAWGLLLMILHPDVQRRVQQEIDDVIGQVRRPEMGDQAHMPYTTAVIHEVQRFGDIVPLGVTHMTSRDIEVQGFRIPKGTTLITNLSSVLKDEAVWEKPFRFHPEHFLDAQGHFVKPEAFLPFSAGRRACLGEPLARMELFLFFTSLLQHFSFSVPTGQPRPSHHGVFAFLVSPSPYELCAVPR
T1 sequence (P08684 whole entry): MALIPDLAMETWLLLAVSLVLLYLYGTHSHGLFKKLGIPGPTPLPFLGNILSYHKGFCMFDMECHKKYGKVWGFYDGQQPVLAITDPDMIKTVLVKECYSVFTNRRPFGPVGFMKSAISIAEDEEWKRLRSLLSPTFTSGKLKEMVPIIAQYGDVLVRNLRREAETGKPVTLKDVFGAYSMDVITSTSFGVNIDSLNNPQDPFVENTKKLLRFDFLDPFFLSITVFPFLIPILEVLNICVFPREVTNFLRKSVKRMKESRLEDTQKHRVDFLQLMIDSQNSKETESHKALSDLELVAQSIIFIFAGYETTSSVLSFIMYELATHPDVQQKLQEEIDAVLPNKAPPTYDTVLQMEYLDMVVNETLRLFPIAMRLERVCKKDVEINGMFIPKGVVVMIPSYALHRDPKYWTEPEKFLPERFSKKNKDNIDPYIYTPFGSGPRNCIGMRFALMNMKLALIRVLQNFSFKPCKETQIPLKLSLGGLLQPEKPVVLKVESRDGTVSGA

A word on the IC50: it is the concentration at which inhibition is half-maximal. As a reminder, the AUC(0-t) is the area under the concentration-time curve up to a stated or last time point. Consider `O=S(=O)(CC[C@@H]1OCC[C@@]2(S(=O)(=O)c3ccc(Cl)cc3)c3c(F)ccc(F)c3OC[C@@H]12)C[C@@H]1CCCN1`, for which the hepatocyte CLint in data set [1] stood at 12.5 µL/min/1e6 cells; in data set [7] it was 5.6 µL/min/1e6 cells; in data set [9] it was 15.2 µL/min/1e6 cells; in [10], 26.7 µL/min/1e6 cells. The IC50 is over 20 µM on Cytochrome P450 2C9; 1 µM at Cytochrome P450 3A4 [3]; over 20 µM at Cytochrome P450 2D6; over 20 µM against Cytochrome P450 3A4 [5]; 0.0007 µM in [6]. Moreover, the exposure AUC(0-t) at 6 h in data set [2] is 0.674 µM·h. Also, the Activity with Mus musculus [4] is listed as -48%; in the data set on Mus musculus [8], -57%. Besides, the Kp at 6 h in data set [11] came to 0.6.
Consider `CNC(C)(C)CCS(=O)(=O)CC[C@@H]1OCC[C@@]2(S(=O)(=O)c3ccc(Cl)cc3)c3c(F)ccc(F)c3OC[C@@H]12`, for which the hepatocyte CLint in data set [1] was 23.5 µL/min/1e6 cells; in data set [7] it was 20.4 µL/min/1e6 cells; in [9] it was 25.8 µL/min/1e6 cells; in data set [10], 55.1 µL/min/1e6 cells. For the same molecule, the half-maximal inhibitory concentration (IC50) on Cytochrome P450 2C9 was over 20 µM; on Cytochrome P450 3A4 [3], over 20 µM; at Cytochrome P450 2D6, over 20 µM; on Cytochrome P450 3A4 [5], over 20 µM; in data set [6], 0.0022 µM. In data set [2], the AUC(0-t) at 6 h worked out at 0.477 µM·h. Further, the figures for the Activity in the data set on Mus musculus [4] and with Mus musculus [8] were -33% and -51%, respectively. Moreover, the solubility kinetic in [12] was over 20 µM. For the same molecule, the Kp at 6 h in data set [11] worked out at 1.
Turning to `O=S(=O)(CC[C@@H]1OCC[C@@]2(S(=O)(=O)c3ccc(Cl)cc3)c3c(F)ccc(F)c3OC[C@@H]12)[C@@H]1CCNC1`, the hepatocyte CLint in [1] turned out to be 17.9 µL/min/1e6 cells; in [7], 14.5 µL/min/1e6 cells; in data set [9], 13.9 µL/min/1e6 cells; in [10] it was 38.8 µL/min/1e6 cells. Further, the IC50 on Cytochrome P450 2C9 was over 20 µM; on Cytochrome P450 3A4 [3] it was 3.7 µM; at Cytochrome P450 2D6, over 20 µM; at Cytochrome P450 3A4 [5], 6.1 µM; in data set [6] it was 0.0051 µM. Besides, the AUC(0-t) at 6 h in [2] was 1.17 µM·h. Also, the Activity in the data set with Mus musculus [4] is given as -73%; in the data set on Mus musculus [8], -90%. The Kp at 6 h in [11] is 2.
Take `O=S(=O)(CC[C@@H]1OCC[C@@]2(S(=O)(=O)c3ccc(Cl)cc3)c3c(F)ccc(F)c3OC[C@@H]12)[C@H]1CCNC1`: the hepatocyte CLint came out at 21.1 µL/min/1e6 cells in data set [1], 34.2 µL/min/1e6 cells in data set [7], 18.9 µL/min/1e6 cells in data set [9] and 60.5 µL/min/1e6 cells in data set [10]. For the same molecule, the 50% inhibitory concentration (IC50) against Cytochrome P450 2C9 is over 20 µM; on Cytochrome P450 3A4 [3], 1 µM; against Cytochrome P450 2D6, over 20 µM; on Cytochrome P450 3A4 [5] it was 2 µM; in [6], 0.0014 µM. Also, in data set [2], the exposure AUC(0-t) at 6 h came to 1.02 µM·h. Besides, the Activity in the data set with Mus musculus [4] was -56%; with Mus musculus [8], -82%. Moreover, the Kp at 6 h in data set [11] was 0.3.
